According to patent US20240315243A1, “A COMBINATION OF FLU[…] SEAWEED EXTRACT” (priority 2021, published 2024):

Columns and labels:
Helicoverpa armigera [1] = test: Whole plant greenhouse assay, binary mixture, Helicoverpa armigera; type: in vivo; details: tomato plants, 3rd instar larva, 72 hours; flubendiamide 30 GAH, Ascophyllum nodosum 120 GAH, solo or mixture 30 + 120 (1:4)
Excerpt: (§1) 25 to 30 days old tomato plants were used for the treatments.

Spodoptera litura [2] = test: Whole plant greenhouse assay, binary mixture, Spodoptera litura; type: in vivo; details: tomato plants, 3rd instar larva, 72 hours; flubendiamide 30 GAH, Ascophyllum nodosum 120 GAH, solo or mixture 30 + 120 (1:4)
Excerpt: as §1

Spodoptera litura [3] = test: Field experiment, binary mixture, Spodoptera litura in tomato crop; type: in vivo
Excerpt: (§2) The tomato seedlings were transplanted and all the recommended package of practices for tomato farming was followed in the experiment, except for plant protection chemicals. […] Vigor descriptive scale was totally based on visual observations.

tomato crop [4] = test: Field experiment, binary mixture, vigor rating of tomato crop; type: in vivo
Excerpt: (§3) The expected activity for a given combination of two active compounds (binary composition) can be calculated as follows: […]
(§4) In which E represents the expected percentage of inhibition of the disease for the combination of two pesticides at defined doses (for example equal to x and y respectively), x is the percentage of inhibition observed for the disease by the compound (1) at a given dose (equal to x), y is the percentage of inhibition observed for the disease by the compound (2) at a defined dose (equal to y).
as §2

tomato crop [5] = test: Field experiment, binary mixture, yield of tomato fruits; type: in vivo; details: flubendiamide 30 GAH, Ascophyllum nodosum 120 GAH, solo or mixture 30 + 120 (1:4)
Excerpt: as §3, §4, §2

Helicoverpa armigera [6] = test: Whole plant greenhouse assay, 3-way mixture, Helicoverpa armigera; details: tomato plants, 3rd instar larva, 72 hours; flubendiamide 30 GAH, profenofos 480 GAH, Ascophyllum Nodosum 120 GAH, solo or mixtures (1:16, 4:1, 1:16:4)
Protocol: (§5) The action expected for a given combination of two or three active components can be calculated as follows: […]
(§6) The experiments were carried out to study synergies if any in terms of the use of insecticides (Flubendiamide & Profenofos) and Ascophyllum Nodosum extract mixture at ratio 1:16:4 and 1:16:6 for the control of insect pest and phytotonic effect, if any.
(§7) The whole plant assay was conducted in the greenhouse, in which the desired quantity of the compounds (Flubendiamide, Profenofos and Ascophyllum Nodosum extract) and mixture in the ratio of 1:16:4 and 1:16:6 were prepared. 40-45 days old tomato plants were used for the treatments. Prepared compounds (Table 7) were sprayed in the booth of Generation III research sprayer (to obtain uniformity in spray) with a delivery rate of about 500 L/hectare of spray solution through flat fan nozzle. After the treatment, the plants were allowed to dry and then moved to the laboratory. The treated plants were covered with a mylar sheet for restricting the larval movement. Single starved 3rd instar larva was released on to the plants individually and mylar sheet was covered at the top with a muslin cloth for better air ventilation. The observation on dead, moribund and alive larvae was recorded at 72 hours after the treatment.

Spodoptera litura [7] = test: Whole plant greenhouse assay, 3-way mixture, Spodoptera litura; details: tomato plants, 3rd instar larva, 72 hours; flubendiamide 30 GAH, profenofos 480 GAH, Ascophyllum Nodosum 120 GAH, solo or mixtures (1:16, 1:4, 4:1, 1:16:4)
Protocol: as §5, §6
as §7, with “and mylar was covered” for “and mylar sheet was covered”

Thrips = test: Whole plant greenhouse assay, 3-way mixture, Thrips; details: brinjal plants, thrips nymph, 72 hours; flubendiamide 30 GAH, profenofos 480 GAH, Ascophyllum Nodosum 120 GAH, solo or mixtures (1:16, 1:4, 4:1, 1:16:4)
Protocol: as §5, §6
as §7, with “days old brinjal plants were” for “days old tomato plants were”, “larval movement. Nymph of thrips was released” for “larval movement. Single starved 3rd instar larva was released”, “and mylar was covered” for “and mylar sheet was covered”

Spodoptera litura [8] = test: Field experiment, 3-way mixture, Spodoptera litura in tomato crop; details: 7 Day after application, flubendiamide 30 GAH, profenofos 480 GAH, Ascophyllum Nodosum 120 GAH, solo or mixtures (1:16, 1:16:4)
Protocol: as §5
(§8) The Field experiment was conducted at PI Industries Limited, Agricultural Research Station, Hyderabad to evaluate the efficacy of mixture of Flubendiamide, Profenofos and Ascophyllum Nodosum against Spodoptera litura in tomato crop. The tomato seedlings were transplanted and all the recommended packages of practices for tomato farming were followed in the experiment, except for plant protection chemicals. The ratio of Flubendiamide, Profenofos and Ascophyllum Nodosum mixture was 1:16:4 and 1:16:6 and the experiment was carried out in plots of 5×5 m in a randomized block design with three replications for each treatment. The applications were done with the help of a knapsack sprayer having a delivery of about 500 L/hectare. Care was taken to avoid drift of spray solution to adjacent experimental plots. Assessment of all the treatments was done for vigor, phytotoxicity and insect control. Observation on the insect larval count per plot from fifteen randomly selected plants was recorded at one day before and on 7 Day after application. […] Vigor descriptive scale was totally based on visual observations. For vigor comparison among treatments, untreated plots were considered as 100 percent and based on that rating was given to other treatments.

tomato crop [9] = test: Field experiment, 3-way mixture, vigor rating of tomato crop; type: in vivo; details: for plant vigor compared with control (visual observation): field, tomato crop; for Vigor rating: visual rating, untreated plots = 100 percent, flubendiamide 30 GAH, profenofos 480 GAH, Ascophyllum Nodosum 120 GAH, solo or mixtures (1:16, 1:4, 4:1, 1:16:4)
Excerpt: Vigor descriptive scale was totally based on visual observations.

tomato crop [10] = test: Field experiment, 3-way mixture, yield of tomato fruits; type: in vivo; details: flubendiamide 30 GAH, profenofos 480 GAH, Ascophyllum Nodosum 120 GAH, solo or mixtures (1:4, 4:1, 1:16:4)
Protocol: as §5, §8

Structure (SMILES) | % mortality (Helicoverpa armigera [1]) | % mortality (Spodoptera litura [2]) | efficacy against Spodoptera litura in tomato (in words) (Spodoptera litura [3]; 30 GAH) | Spodoptera litura (% control) 7 DAA (Spodoptera litura [3]; tomato, 7 DAA, flubendiamide 30 GAH, Ascophyllum nodosum 120 GAH, solo or mixture 30 + 120 (1:4)) | Spodoptera litura (% control) 10 DAA (Spodoptera litura [3]; tomato, 10 DAA, flubendiamide 30 GAH, Ascophyllum nodosum 120 GAH, solo or mixture 30 + 120 (1:4)) | plant vigor compared with control (visual observation) (tomato crop [4]; field, tomato crop) | Vigor (tomato crop [4]; visual rating, untreated plots = 100 percent, flubendiamide 30 GAH, Ascophyllum nodosum 120 GAH, solo or mixture 30 + 120 (1:4)) | Yield of tomato fruits, Ton/ha (observed) (tomato crop [5]) | Observed % mortality (Helicoverpa armigera [6]) | Observed % mortality (Spodoptera litura [7]) | Observed % mortality (Thrips) | Observed % mortality (Spodoptera litura [8]) | plant vigor compared with control (visual observation) (tomato crop [9]) | Vigor rating (tomato crop [9]) | Observed yield (ton/hectare) of tomato fruits (tomato crop [10])
Cc1cc(C(F)(C(F)(F)F)C(F)(F)F)ccc1NC(=O)c1cccc(I)c1C(=O)NC(C)(C)CS(C)(=O)=O [Flubendiamide, 3-iodo-N′-(2-mesyl-1,1-dimethylethyl)-N-{4-[1,2,2,2-tetrafluoro-1-(trifluoromethyl)ethyl]-o-tolyl}phthalamide] | 70% | 70% | effectively controlled the insect pests | 66.67% | 70.00% | good plant vigor | 110 | 60.16 Ton/ha | 65% | 72% | 8% | 72.7% | good plant vigor | 125 | 64.20 ton/hectare
CCCSP(=O)(OCC)Oc1ccc(Br)cc1Cl (stereo not shown) [Profenofos, profenofos] |  |  |  |  |  |  |  |  | 50% | 52% | 72% | 55.6% | good plant vigor | 120 | 56.95 ton/hectare
